# Literature values as cited in US20140271927A1, “COMPOSITION AND METHOD FOR TREATING NEUROPATHY” (priority 2013, published 2014).
# Settings: published studies reviewed
compound,measurement,value
[Cr] [chromium],lowering the HbgAlc,1-2%
